From PubChem BioAssay AID330 (DTP/NCI, 2004)
Several values for one entry are separate records, joined by “and”; a condition that tells them apart may be missing. Identical values can stand only once. Inconclusive results and toxic doses are left out. How the source made its calls: active means survival T/C of 150% or more; inactive means T/C below 125% in these data.

System: P388 leukemia ip, CD2F1 mice, survival T/C
Test: NCI In Vivo Anticancer Drug Screen. Data for tumor model P388 Leukemia (intraperitoneal) in CD2F1 (CDF1) mice
Details: endpoint: median survival time, higher = longer survival
In short: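 Mice carrying the transplanted tumor received test compound or vehicle. Survival was recorded in each group, and the value is the treated-group measurement divided by that of the vehicle-treated control group.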

[1] = dose: 25.0 mg/kg/injection, schedule: Q01DX009 (ip), vehicle: Klucel (hydroxypropylcellulose) (HPC)
[2] = dose: 50.0 mg/kg/injection, schedule: Q01DX009 (ip), vehicle: Klucel (hydroxypropylcellulose) (HPC)
[3] = dose: 100.0 mg/kg/injection, schedule: Q04DX003 (ip), vehicle: saline
[4] = dose: 200.0 mg/kg/injection, schedule: Q04DX003 (ip), vehicle: saline
[5] = dose: 400.0 mg/kg/injection, schedule: Q04DX003 (ip), vehicle: saline
[6] = dose: 100.0 mg/kg/injection, schedule: Q01DX009 (ip), vehicle: Klucel (hydroxypropylcellulose) (HPC)
[7] = dose: 200.0 mg/kg/injection, schedule: Q01DX009 (ip), vehicle: Klucel (hydroxypropylcellulose) (HPC)
[8] = dose: 60.0 mg/kg/injection, schedule: Q01DX005 (ip), vehicle: saline with Tween-80
[9] = dose: 120.0 mg/kg/injection, schedule: Q01DX005 (ip), vehicle: saline with Tween-80
[10] = dose: 240.0 mg/kg/injection, schedule: Q01DX005 (ip), vehicle: saline with Tween-80
[11] = dose: 6.25 mg/kg/injection, schedule: Q01DX009 (ip), vehicle: saline with Tween-80
[12] = dose: 12.5 mg/kg/injection, schedule: Q01DX009 (ip), vehicle: saline with Tween-80
[13] = dose: 25.0 mg/kg/injection, schedule: Q01DX009 (ip), vehicle: other
[14] = dose: 50.0 mg/kg/injection, schedule: Q01DX009 (ip), vehicle: other
[15] = dose: 100.0 mg/kg/injection, schedule: Q01DX009 (ip), vehicle: other
[16] = dose: 200.0 mg/kg/injection, schedule: Q01DX009 (ip), vehicle: other
[17] = dose: 400.0 mg/kg/injection, schedule: Q01DX009 (ip), vehicle: other
[18] = dose: 100.0 mg/kg/injection, schedule: Q01DX009 (ip), vehicle: saline with Tween-80
[19] = dose: 200.0 mg/kg/injection, schedule: Q01DX009 (ip), vehicle: saline with Tween-80
[20] = dose: 25.0 mg/kg/injection, schedule: Q01DX009 (ip), vehicle: saline
[21] = dose: 50.0 mg/kg/injection, schedule: Q01DX009 (ip), vehicle: saline

Measured: T/C

COC1C2CC3C4(CCC5C6(C)CCCC53C(C14)N(C)C6)CC21CCC23C4C=C5C6=C(CCC5(CC42)C3O1)C1(C)CC(C6)CN(C)C1 (centres undefined)
inactive: dose: 12.5 mg/kg/injection, schedule: Q01DX009 (ip), vehicle: Klucel (hydroxypropylcellulose) (HPC) 91 % of control | [1] 94 % of control | [2] 98 % of control

CCCCCCC[CH2][Sn]([Cl])([CH2]CCCCCCC)[O][Sn]([CH2]CCCCCCC)([CH2]CCCCCCC)[O]C
inactive: [3] 101 % of control | [4] 96 % of control | [5] 98 % of control

CC(=O)Nc1c(Br)cc(C)cc1Br
inactive: [2] 94 % of control | [6] 102 % of control | [7] 100 % of control

C1=NCc2nnn(Cc3ccccc3)c2N1
inactive: [2] 102 % of control | [6] 98 % of control | [7] 108 % of control

COc1cc2c(cc1C)C1=C(C)C(=O)OC1[C@@H](O)[C@@H]2C (some centres undefined)
inactive: dose: 2.25 mg/kg/injection, schedule: Q01DX005 (ip), vehicle: Klucel (hydroxypropylcellulose) (HPC) 104 % of control | dose: 4.5 mg/kg/injection, schedule: Q01DX005 (ip), vehicle: Klucel (hydroxypropylcellulose) (HPC) 101 % of control | dose: 9.0 mg/kg/injection, schedule: Q01DX005 (ip), vehicle: Klucel (hydroxypropylcellulose) (HPC) 101 % of control | dose: 18.0 mg/kg/injection, schedule: Q01DX005 (ip), vehicle: Klucel (hydroxypropylcellulose) (HPC) 94 % of control

Cc1cc2c(cc1C)NS(=O)(=O)N2
inactive: [8] 102 % of control | [9] 109 % of control | [10] 102 % of control

CCCCCCCCCCCC1=C(O)C(=O)C=C(O)C1=O
inactive: [11] 101 % of control | [12] 106 % of control | dose: 25.0 mg/kg/injection, schedule: Q01DX009 (ip), vehicle: saline with Tween-80 102 % of control

Cc1ncc(/C=N/O)n1Cc1ccccc1
inactive: [8] 99 % of control | [9] 93 % of control | [10] 90 % of control

Cc1[nH]c(C(=O)O)cc(=O)c1C
inactive: [13] 103 % of control | [14] 103 % of control | [15] 101 % of control | [16] 99 % of control | [17] 97 % of control

O=S(=O)(N/N=C/c1ccccc1)c1ccccc1
inactive: [1] 106 % of control | [2] 97 % of control | [6] 99 % of control | [7] 106 % of control

CCOC(=O)C(C(=O)c1ccccc1)C(C)(C)C (centres undefined)
inactive: dose: 37.5 mg/kg/injection, schedule: Q01DX009 (ip), vehicle: saline with Tween-80 103 % of control | dose: 75.0 mg/kg/injection, schedule: Q01DX009 (ip), vehicle: saline with Tween-80 105 % of control | dose: 150.0 mg/kg/injection, schedule: Q01DX009 (ip), vehicle: saline with Tween-80 112 % of control

O=C1c2ccccc2CCCC12OC2c1ccncc1 (centres undefined)
inactive: [2] 90 % of control | [6] 96 % of control | [7] 90 % of control

CC(C)(C)C1=CC2(C(C)(C)C)OC2C(=O)C1=O (centres undefined)
inactive: dose: 3.12 mg/kg/injection, schedule: Q01DX009 (ip), vehicle: saline with Tween-80 105 % of control | [11] 105 % of control | [12] 98 % of control

Cc1cccc(C)c1NC(=S)N1CCC(CCCC2CCN(C(=S)Nc3c(C)cccc3C)CC2)CC1
inactive: dose: 100.0 mg/kg/injection, schedule: Q04DX003 (ip), vehicle: saline with Tween-80 86 % of control | dose: 200.0 mg/kg/injection, schedule: Q04DX003 (ip), vehicle: saline with Tween-80 86 % of control

CCN(CC)N=Nc1ccc(NC(C)=O)cc1
inactive: dose: 6.25 mg/kg/injection, schedule: Q04DX003 (ip), vehicle: Klucel (hydroxypropylcellulose) (HPC) 102 % of control | dose: 12.5 mg/kg/injection, schedule: Q04DX003 (ip), vehicle: Klucel (hydroxypropylcellulose) (HPC) 101 % of control | dose: 25.0 mg/kg/injection, schedule: Q04DX003 (ip), vehicle: Klucel (hydroxypropylcellulose) (HPC) 102 % of control

C=CCOc1nc(OCC=C)nc(OCC=C)n1
inactive: [18] 97 % of control | [19] 93 % of control

O=NN(c1ccc(Br)cc1)c1ccccn1
inactive: [13] 102 % of control | [14] 109 % of control | dose: 50.0 mg/kg/injection, schedule: Q01DX009 (ip), vehicle: saline with Tween-80 100 % of control | [15] 109 % of control | [18] 100 % of control | [16] 114 % of control | [19] 97 % of control | [17] 112 % of control

CCOC(=O)C1(N)CCCC1
inactive: dose: 6.25 mg/kg/injection, schedule: Q01DX009 (ip), vehicle: saline 105 % of control and 86 % of control | dose: 12.5 mg/kg/injection, schedule: Q01DX009 (ip), vehicle: saline 100 % of control and 102 % of control | [20] 100 % of control and 96 % of control | [21] 114 % of control and 96 % of control

C(=C\c1ccc2cc(C3=NCCN3)[nH]c2c1)/c1ccc(Oc2ccc(C3=NCCN3)cc2)cc1 (tested in a mixture with another compound)
inactive: dose: 6.25 mg/kg/injection, schedule: Q01DX005 (ip), vehicle: Klucel (hydroxypropylcellulose) (HPC) 111 % of control | dose: 12.5 mg/kg/injection, schedule: Q01DX005 (ip), vehicle: Klucel (hydroxypropylcellulose) (HPC) 97 % of control | dose: 25.0 mg/kg/injection, schedule: Q01DX005 (ip), vehicle: Klucel (hydroxypropylcellulose) (HPC) 100 % of control

CC(=O)OCC1OC(n2cnc(C(N)=S)c2N)C(OC(C)=O)C1OC(C)=O (centres undefined)
inactive: [8] 100 % of control | [9] 103 % of control | [10] 110 % of control

COc1ccc(C2=NC(=O)OC2(C)C)cc1
inactive: dose: 60.0 mg/kg/injection, schedule: Q01DX005 (ip), vehicle: Klucel (hydroxypropylcellulose) (HPC) 110 % of control | dose: 120.0 mg/kg/injection, schedule: Q01DX005 (ip), vehicle: Klucel (hydroxypropylcellulose) (HPC) 102 % of control | dose: 240.0 mg/kg/injection, schedule: Q01DX005 (ip), vehicle: Klucel (hydroxypropylcellulose) (HPC) 108 % of control

c1ccc2c3c(c4c(c2c1)CN(C1CCCCC1)CO4)OCN(C1CCCCC1)C3
inactive: dose: 6.25 mg/kg/injection, schedule: Q01DX005 (ip), vehicle: saline with Tween-80 106 % of control | dose: 12.5 mg/kg/injection, schedule: Q01DX005 (ip), vehicle: saline with Tween-80 107 % of control and 112 % of control | dose: 50.0 mg/kg/injection, schedule: Q01DX005 (ip), vehicle: saline with Tween-80 116 % of control

C1CNCCSCCCSCCNC1
inactive: [20] 100 % of control | [21] 98 % of control | dose: 100.0 mg/kg/injection, schedule: Q01DX009 (ip), vehicle: saline 89 % of control | dose: 200.0 mg/kg/injection, schedule: Q01DX009 (ip), vehicle: saline 87 % of control

COc1ccc(-c2csc(N)n2)cc1OC
inactive: dose: 100.0 mg/kg/injection, schedule: Q04DX003 (ip), vehicle: Klucel (hydroxypropylcellulose) (HPC) 98 % of control | dose: 200.0 mg/kg/injection, schedule: Q04DX003 (ip), vehicle: Klucel (hydroxypropylcellulose) (HPC) 101 % of control | dose: 400.0 mg/kg/injection, schedule: Q04DX003 (ip), vehicle: Klucel (hydroxypropylcellulose) (HPC) 102 % of control

CSC(=S)c1ccc(NSc2ccccc2[N+](=O)[O-])cc1
inactive: [3] 113 % of control | [4] 110 % of control | [5] 93 % of control

CN(/N=C(C#N)/C(N)=N/NC(=O)c1ccccc1)c1ccccc1
inactive: dose: 25.0 mg/kg/injection, schedule: Q04DX002 (ip), vehicle: saline with Tween-80 103 % of control | dose: 50.0 mg/kg/injection, schedule: Q04DX002 (ip), vehicle: saline with Tween-80 96 % of control | dose: 100.0 mg/kg/injection, schedule: Q04DX002 (ip), vehicle: saline with Tween-80 96 % of control

COc1ccc2c(c1)CCn1c(C)c(COC(=O)NC3CCCCC3)c(COC(=O)NC3CCCCC3)c1-2
active: dose: 50.0 mg/kg/injection, schedule: Q01DX009 (ip), vehicle: distilled water + Tween-80 151 % of control and 164 % of control
inactive: dose: 100.0 mg/kg/injection, schedule: Q01DX009 (ip), vehicle: distilled water + Tween-80 92 % of control
